Assay results as given in article PMC8453848, “Effect of GLPG1205, a GPR84 Modulator, on CYP2C9, CYP2C19, and CYP1A2 Enzymes: In Vitro and Phase 1 Studies” (Clinical Pharmacology in Drug Development, 2021).
Read-outs that look alike come from different tables or passages of the source. Values belong to the compound of their own block, whether it stands above or below them.

How the values were obtained:
CYP2C19 = CYP2C19 (Homo sapiens, UniProt P33261); test: Phase 1 drug-drug interaction study: PK of omeprazole and 5-hydroxyomeprazole with placebo or GLPG1205; conditions: for tmax: median (min‐max); for AUC: male, plasma, oral, arithmetic mean (CV%)
Description: Prior to injection into the analytical system, isolation of omeprazole, its metabolite and the deuterated IS (omeprazole –d3) from 200 µL of human Li-heparin plasma was performed by solid phase extraction performed on Oasis HBL 60mg 3cc cartridges (Waters, Zellik, Belgium). The elution from the cartridges was done with 1 mL of methanol and then the eluate was evaporated to dryness under a stream of nitrogen at approximatively +35°C. The residue was reconstituted with 0.2 mL of mobile phase and then centrifuged at about 3500 rpm for 5 minutes at +5°C. 120 µL of the clear supernatant was transferred into injection vials. […] Chromatographic separation was performed on a Zorbax XBD-C8 column (Agilent, Eindhoven, The Netherlands) (50 x 4.6 mm, 3.5 µm from Interchim) by using a Nexera HLPC system (Shimadzu, Kyoto, Japan) in isocratic elution mode.

CYP2C9 = CYP2C9 (Homo sapiens, UniProt P11712); conditions: for AUC0‐inf: arithmetic mean (CV%); for tmax: median (min‐max)
CYP1A2 [1] = biological target: T1, CYP1A2 (Homo sapiens, UniProt P05177); conditions: for tmax: median (min‐max); for R_AUC0‐t (metabolite‐over‐parent ratio): geometric mean (geometric CV%)
T1 sequence (P05177 1-516): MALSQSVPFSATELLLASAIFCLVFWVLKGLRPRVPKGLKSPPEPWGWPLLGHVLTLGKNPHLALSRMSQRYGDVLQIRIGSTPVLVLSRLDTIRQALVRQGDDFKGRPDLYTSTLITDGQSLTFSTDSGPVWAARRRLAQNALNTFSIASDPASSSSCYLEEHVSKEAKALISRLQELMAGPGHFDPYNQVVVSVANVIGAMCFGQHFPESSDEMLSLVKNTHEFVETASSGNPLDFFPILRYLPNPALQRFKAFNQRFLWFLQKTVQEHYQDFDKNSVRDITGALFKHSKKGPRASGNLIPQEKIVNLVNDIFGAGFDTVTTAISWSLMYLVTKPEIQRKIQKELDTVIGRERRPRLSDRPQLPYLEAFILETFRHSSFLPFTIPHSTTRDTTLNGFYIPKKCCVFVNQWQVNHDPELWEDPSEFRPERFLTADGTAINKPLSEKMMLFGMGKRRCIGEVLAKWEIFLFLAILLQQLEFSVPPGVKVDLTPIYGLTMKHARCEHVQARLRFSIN

CYP1A2 [2] = biological target: T1, CYP1A2; test: clinical; conditions: male, plasma, oral; for half-life: t1/2, λz
[3] = GLPG1205 100 mg once a day + warfarin
[4] = AUC0‐t, GLPG1205 100 mg once a day + caffeine, arithmetic mean (CV%)
[5] = AUC0‐t, Placebo + caffeine, arithmetic mean (CV%)
[6] = GLPG1205 100 mg once a day + caffeine 100 mg day 13, n = 14, arithmetic mean (CV%)
[7] = Placebo + caffeine 100 mg day 13, n = 14, arithmetic mean (CV%)
[8] = GLPG1205 relative to placebo (ANOVA)
[9] = GLPG1205 100 mg once a day + caffeine

CYP2C9, sequence (P11712 whole entry): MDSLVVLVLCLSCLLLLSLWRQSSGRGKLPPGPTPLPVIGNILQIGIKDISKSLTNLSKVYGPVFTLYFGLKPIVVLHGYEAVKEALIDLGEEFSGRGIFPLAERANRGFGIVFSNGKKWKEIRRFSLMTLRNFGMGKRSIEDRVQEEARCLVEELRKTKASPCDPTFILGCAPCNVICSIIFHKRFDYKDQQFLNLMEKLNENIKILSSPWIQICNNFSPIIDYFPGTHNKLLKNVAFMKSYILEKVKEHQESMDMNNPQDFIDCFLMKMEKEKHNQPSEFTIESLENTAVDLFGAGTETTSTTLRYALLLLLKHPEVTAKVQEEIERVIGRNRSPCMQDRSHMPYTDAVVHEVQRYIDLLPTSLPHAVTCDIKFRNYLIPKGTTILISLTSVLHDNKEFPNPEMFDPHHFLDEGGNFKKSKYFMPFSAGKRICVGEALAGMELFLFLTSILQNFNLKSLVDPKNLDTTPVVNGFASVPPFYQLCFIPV
CYP2C19, sequence (P33261 whole entry): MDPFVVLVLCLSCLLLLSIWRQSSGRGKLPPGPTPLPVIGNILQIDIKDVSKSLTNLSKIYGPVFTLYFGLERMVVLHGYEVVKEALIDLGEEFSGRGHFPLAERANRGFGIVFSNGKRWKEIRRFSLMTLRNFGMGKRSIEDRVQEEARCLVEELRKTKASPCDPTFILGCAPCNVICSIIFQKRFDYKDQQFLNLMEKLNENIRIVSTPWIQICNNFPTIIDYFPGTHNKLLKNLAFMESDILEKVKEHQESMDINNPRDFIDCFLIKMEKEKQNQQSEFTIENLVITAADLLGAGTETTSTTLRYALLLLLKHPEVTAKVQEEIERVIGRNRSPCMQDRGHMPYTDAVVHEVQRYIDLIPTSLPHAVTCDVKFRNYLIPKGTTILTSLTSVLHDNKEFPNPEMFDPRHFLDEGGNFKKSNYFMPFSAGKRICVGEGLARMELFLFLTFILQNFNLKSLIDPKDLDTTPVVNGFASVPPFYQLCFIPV

AUC0‐inf, PE (90% CI) of least‐squares geometric means ratio (CYP2C19; human, in vivo): 1.08 (0.98‐1.20)
AUC0‐t, PE (90% CI) of least‐squares geometric means ratio (CYP2C19; human, in vivo): 1.08 (0.96‐1.21)
R_AUC0‐inf, PE (90% CI) of least‐squares geometric means ratio (CYP2C19; in vivo): 0.83 (0.77‐0.89)
R_AUC0‐t, PE (90% CI) of least‐squares geometric means ratio (CYP2C19; in vivo): 0.84 (0.79‐0.89)
Structure (SMILES): COc1ccc2nc([S+]([O-])Cc3ncc(CO)c(OC)c3C)[nH]c2c1 (centres unmarked) [5‐Hydroxyomeprazole, 5‐hydroxyomeprazole]

Structure (SMILES): CC(=O)C[C@@H](c1ccccc1)c1c(O)c2ccc(O)cc2oc1=O [(S)‐7‐Hydroxywarfarin, (S)‐7‐hydroxywarfarin]
AUC0‐t, PE (90% CI) of least‐squares geometric means ratio (CYP2C9; human, in vivo): 1.15 (1.00‐1.32)
R_AUC0‐t, PE (90% CI) of least‐squares geometric means ratio (CYP2C9; in vivo): 1.01 (0.87‐1.19)

Structure (SMILES): CC(=O)C[C@@H](c1ccccc1)c1c(O)c2ccccc2oc1=O [(S)‐Warfarin, (S)‐warfarin]
Cmax (CYP2C9; GLPG1205 100 mg once a day + warfarin 10 mg day 13, n = 14, arithmetic mean (CV%)): 0.481 (19.8) μg/mL
AUC0‐inf (CYP2C9; [3]): 17.5 (24.9) μg·h/mL
tmax (CYP2C9; [3]): 2.0 (0.5‐4.0) h
Cmax (CYP2C9; Placebo + warfarin 10 mg day 13, n = 14, arithmetic mean (CV%)): 0.453 (21.3) μg/mL
AUC0‐inf (CYP2C9; Placebo + warfarin): 15.1 (21.1) μg·h/mL
tmax (CYP2C9; Placebo + warfarin): 2.0 (0.5‐4.0) h

Structure (SMILES): Cn1c(=O)c2c(ncn2C)n(C)c1=O [Caffeine, caffeine]
tmax (CYP1A2 [1]; Placebo + caffeine): 1.0 (0.3‐3.0) h
AUC (CYP1A2 [2]; AUC0‐inf, GLPG1205 100 mg once a day + caffeine, arithmetic mean (CV%)): 17400 ng·h/mL
AUC (CYP1A2 [2]; AUC0‐inf, Placebo + caffeine, n = 12, arithmetic mean (CV%)): 18700 ng·h/mL
AUC (CYP1A2 [2]; [4]): 15700 ng·h/mL
AUC (CYP1A2 [2]; [5]): 16300 ng·h/mL
Cmax (CYP1A2 [2]; [6]): 2160 ng/mL
Cmax (CYP1A2 [2]; [7]): 2150 ng/mL
half-life (CYP1A2 [2]; GLPG1205 100 mg once a day + caffeine, arithmetic mean (CV%)): 4.9 h
half-life (CYP1A2 [2]; Placebo + caffeine, n = 13, arithmetic mean (CV%)): 5.73 h

tmax (CYP2C19; GLPG1205 100 mg once a day + omeprazole): 2.0 (1.0‐5.0) h
AUC0‐inf, PE (90% CI) of least‐squares geometric means ratio (CYP2C19; [8]): 1.36 (1.18‐1.58)
AUC0‐t, PE (90% CI) of least‐squares geometric means ratio (CYP2C19; [8]): 1.28 (1.10‐1.49)
Cmax, PE (90% CI) of least‐squares geometric means ratio (CYP2C19; [8]): 1.30 (1.03‐1.65)
t1/2, λz, PE (90% CI) of least‐squares geometric means ratio (CYP2C19; [8]): 1.09 (0.97‐1.22)
tmax (CYP2C19; Placebo + omeprazole): 3.0 (2.0‐5.0) h
AUC (CYP2C19; human, 20 mg, AUC0‐inf, Placebo + omeprazole): 520 ng·h/mL
AUC (CYP2C19; human, 20 mg, AUC0‐t, Placebo + omeprazole): 486 ng·h/mL
AUC (CYP2C19; human, AUC0‐inf, GLPG1205 100 mg once a day + omeprazole): 548 ng·h/mL
AUC (CYP2C19; human, AUC0‐t, GLPG1205 100 mg once a day + omeprazole): 563 ng·h/mL
Structure (SMILES): COc1ccc2[nH]c([S+]([O-])Cc3ncc(C)c(OC)c3C)nc2c1 (centres unmarked) [Omeprazole, omeprazole, reference compound]

R_AUC0‐t (metabolite‐over‐parent ratio) (CYP1A2 [1]; [9]): 0.538 (27.7)
tmax (CYP1A2 [1]; [9]): 7.0 (0.3‐12.0) h
AUC0‐t, PE (90% CI) of least‐squares geometric means ratio (CYP1A2 [1]; [8]): 0.96 (0.79‐1.16)
Cmax, PE (90% CI) of least‐squares geometric means ratio (CYP1A2 [1]; [8]): 1.08 (0.97‐1.21)
R_AUC0‐t, PE (90% CI) of least‐squares geometric means ratio (CYP1A2 [1]; [8]): 1.00 (0.87‐1.15)
R_AUC0‐t (metabolite‐over‐parent ratio) (CYP1A2 [1]; Placebo + caffeine): 0.539 (30.5)
AUC (CYP1A2 [2]; [4]): 8600 ng·h/mL
AUC (CYP1A2 [2]; [5]): 8430 ng·h/mL
Cmax (CYP1A2 [2]; [6]): 634 ng/mL
Cmax (CYP1A2 [2]; [7]): 577 ng/mL
Structure (SMILES): Cn1c(=O)[nH]c2ncn(C)c2c1=O [Paraxanthine, paraxanthine]
